Data on ten compounds can be found in PMC10893103, “Cyclodextrin-Enabled Enantioselective Complexation Study of Cathinone Analogs” (Molecules, 2024).

The nature of the series: Affinity capillary electrophoresis (ACE), pH 7.4. Particulars: 30 mM phosphate buffer pH 7.4, 25 °C, 15 kV. From the text: To assess the CD complex formation capability of the five cathinone derivatives, we devised a screening ACE method tailored to closely mimic physiological conditions. In a preliminary study, the ACE conditions were optimized regarding the type, pH, and concentration of the background electrolyte, the applied voltage, and the injection parameters. […] In order to avoid high Joule heat generation, sufficiently low voltage should be used; thus, after registering the Ohm plot (I-U plot), it was set to 15 kV. Throughout our ACE measurements, corrections for viscosity and ionic strength were systematically implemented to ensure precise determination of complex stability constants.
The CE experiments were performed on a HP ^3DCE and on an Agilent 7100 instrument (Agilent Technologies, Waldbronn, Germany) equipped with a photodiode array detector and the Chemstation software for data handling. Untreated fused silica capillaries (50 µm id, 48.5 cm total, 40 cm effective length) were purchased from Agilent. Conditioning of new capillary was conducted by flushing with 1 M NaOH followed by 0.1 M NaOH and water for 30 min each. Prior to all runs, the capillary was preconditioned by rinsing with BGE (2 min). The temperature of the capillary was set to 25 °C. UV detection was performed at 215 nm, and 15–25 kV voltage was applied. Samples were injected hydrodynamically (150 mbar·sec, optimized in the 50–500 mbar·sec range). The CE-pH measurements were carried out applying 25 kV voltage and 200 mbar·sec injection.
The background electrolyte of the CE-pH measurements contained 25 mM Na2HPO4 and 25 mM Na2B4O7, and the appropriate pH was adjusted with hydrochloric acid. During the ACE measurements, 30 mM phosphate buffer pH 7.4 (30 mM Na2HPO4—NaOH) was used. The running buffer was 20 mM acetic acid adjusting with 1 M Tris the pH to 4.5 during the chiral screening experiments. The BGEs contained CDs at various concentrations (0.25–20 mM) in the ACE experiments and 1-5-10 mM in the chiral method optimization experiments.
Stock solutions of each cathinone analog (mephedrone, flephedrone, 4-MEC, butylone, and MDPV) were prepared separately in methanol (1 mg/ml), and appropriate dilutions with water were used to prepare sample solutions for the CE-pH titration and for the ACE studies applying DMSO as EOF marker, while their mixture was used during the chiral separation studies.
The simplest way to determine the mobility is from the migration times (tmax) read from the electropherograms from which the apparent mobility could be calculated, but more accurate mobility values could be obtained by the determination with the Haarhoff–van der Linde (HVL) function based on Equation (2). (2) HVLδ(t;a0,a1,a2,a3δ)=a0/a2a3δ2πexp[−1/2(t−a1/a2)^2]/1/exp(a3δ)−1+1/2[1+erf(t−a1/2a2)] where a0 is the area of the HVL function, a1 is the position of the Gaussian component, a2 is the standard deviation of the Gaussian component, and a3δ is the peak shape distortion. The application of the HVL function is necessary in the case of accurate ACE measurements because, in several cases, the peaks are distorted due to the complex formation, which makes reading the migration times and calculating the mobility more difficult and imprecise.
The most popular technique for quantifying the analyte–ligand interaction with CE is mobility shift ACE.
As to `C[N+]1(C[C@H]2O[C@@H]3O[C@H]4[C@H](O)[C@@H](O)[C@@H](O[C@H]5[C@H](O)[C@@H](O)[C@@H](O[C@H]6[C@H](O)[C@@H](O)[C@@H](O[C@H]7[C@H](O)[C@@H](O)[C@@H](O[C@H]8[C@H](O)[C@@H](O)[C@@H](O[C@H]9[C@H](O)[C@@H](O)[C@@H](O[C@H]2[C@H](O)[C@H]3O)O[C@@H]9CO)O[C@@H]8CO)O[C@@H]7CO)O[C@@H]6CO)O[C@@H]5CO)O[C@@H]4CO)CCCCC1` [MePIP-β-CD, mono-6^A-(N-methyl-piperidine)-β-CD], the “4-MEC–CD complex stability constant, Kstab/Kstab1 (unresolved or first migrating enantiomer)” value was 50 ± 5 M⁻¹; the “Butylone–CD complex stability constant, Kstab/Kstab1 (unresolved or first migrating enantiomer)” value was 40 ± 3 M⁻¹; the “Flephedrone–CD complex stability constant, Kstab/Kstab1 (unresolved or first migrating enantiomer)” value came out at 40 ± 3 M⁻¹; the “MDPV–CD complex stability constant, Kstab/Kstab1 (unresolved or first migrating enantiomer)” value came to 85 ± 5 M⁻¹. The “Mephedrone–CD complex stability constant, Kstab/Kstab1 (unresolved or first migrating enantiomer)” value amounted to 45 ± 5 M⁻¹.
Regarding `OC[C@H]1O[C@@H]2O[C@H]3[C@H](O)[C@@H](O)[C@@H](O[C@H]4[C@H](O)[C@@H](O)[C@@H](O[C@H]5[C@H](O)[C@@H](O)[C@@H](O[C@H]6[C@H](O)[C@@H](O)[C@@H](O[C@H]7[C@H](O)[C@@H](O)[C@@H](O[C@H]8[C@H](O)[C@@H](O)[C@@H](O[C@H]9[C@H](O)[C@@H](O)[C@@H](O[C@H]1[C@H](O)[C@H]2O)O[C@@H]9CO)O[C@@H]8CO)O[C@@H]7CO)O[C@@H]6CO)O[C@@H]5CO)O[C@@H]4CO)O[C@@H]3CO` [γ-CD], the “4-MEC–CD complex stability constant, Kstab/Kstab1 (unresolved or first migrating enantiomer)” value was 90 ± 15 M⁻¹; the “Butylone–CD complex stability constant, Kstab/Kstab1 (unresolved or first migrating enantiomer)” value worked out at 30 ± 3 M⁻¹; the “Flephedrone–CD complex stability constant, Kstab/Kstab1 (unresolved or first migrating enantiomer)” value was determined as 125 ± 10 M⁻¹; the “MDPV–CD complex stability constant, Kstab/Kstab1 (unresolved or first migrating enantiomer)” value came to 100 ± 10 M⁻¹. In addition, the “Mephedrone–CD complex stability constant, Kstab/Kstab1 (unresolved or first migrating enantiomer)” value was determined as 60 ± 10 M⁻¹.
For the compound “sulfo(2-hydroxy)propylated-β-CD [SHP-β-CD]”, the “4-MEC–CD complex stability constant, Kstab2 (second migrating enantiomer)” value amounted to 300 ± 25 M⁻¹; the “4-MEC–CD complex stability constant, Kstab/Kstab1 (unresolved or first migrating enantiomer)” value came to 250 ± 20 M⁻¹; the “Butylone–CD complex stability constant, Kstab/Kstab1 (unresolved or first migrating enantiomer)” value turned out to be 620 ± 35 M⁻¹; the “Flephedrone–CD complex stability constant, Kstab/Kstab1 (unresolved or first migrating enantiomer)” value amounted to 60 ± 10 M⁻¹. Also, the “MDPV–CD complex stability constant, Kstab2 (second migrating enantiomer)” value is 910 ± 55 M⁻¹; the “MDPV–CD complex stability constant, Kstab/Kstab1 (unresolved or first migrating enantiomer)” value was 800 ± 65 M⁻¹; the “Mephedrone–CD complex stability constant, Kstab2 (second migrating enantiomer)” value came to 300 ± 20 M⁻¹; the “Mephedrone–CD complex stability constant, Kstab/Kstab1 (unresolved or first migrating enantiomer)” value was 230 ± 20 M⁻¹.
As to “sulfo(2-hydroxy)propylated-γ-CD [SHP-γ-CD]”, the “4-MEC–CD complex stability constant, Kstab2 (second migrating enantiomer)” value turned out to be 25 ± 5 M⁻¹; the “4-MEC–CD complex stability constant, Kstab/Kstab1 (unresolved or first migrating enantiomer)” value was 30 ± 7 M⁻¹; the “Butylone–CD complex stability constant, Kstab2 (second migrating enantiomer)” value is 70 ± 7 M⁻¹; the “Butylone–CD complex stability constant, Kstab/Kstab1 (unresolved or first migrating enantiomer)” value is 30 ± 5 M⁻¹. In addition, the “Flephedrone–CD complex stability constant, Kstab/Kstab1 (unresolved or first migrating enantiomer)” value came to 45 ± 80 M⁻¹; the “Mephedrone–CD complex stability constant, Kstab2 (second migrating enantiomer)” value was below 10 M⁻¹; the “Mephedrone–CD complex stability constant, Kstab/Kstab1 (unresolved or first migrating enantiomer)” value was 15 ± 5 M⁻¹.
For carboxymethylated-β-CD [CM-β-CD], the “4-MEC–CD complex stability constant, Kstab2 (second migrating enantiomer)” value was determined as 725 ± 45 M⁻¹; the “4-MEC–CD complex stability constant, Kstab/Kstab1 (unresolved or first migrating enantiomer)” value was 620 ± 40 M⁻¹; the “Flephedrone–CD complex stability constant, Kstab2 (second migrating enantiomer)” value stood at 225 ± 10 M⁻¹; the “Flephedrone–CD complex stability constant, Kstab/Kstab1 (unresolved or first migrating enantiomer)” value was 190 ± 10 M⁻¹. The “Mephedrone–CD complex stability constant, Kstab2 (second migrating enantiomer)” value was found to be 615 ± 25 M⁻¹ and the “Mephedrone–CD complex stability constant, Kstab/Kstab1 (unresolved or first migrating enantiomer)” value was determined as 610 ± 30 M⁻¹.
As for sulfated-γ-CD [S-γ-CD], the “4-MEC–CD complex stability constant, Kstab/Kstab1 (unresolved or first migrating enantiomer)” value came out at 290 ± 30 M⁻¹; the “Butylone–CD complex stability constant, Kstab/Kstab1 (unresolved or first migrating enantiomer)” value was determined as 960 ± 95 M⁻¹; the “MDPV–CD complex stability constant, Kstab/Kstab1 (unresolved or first migrating enantiomer)” value is 250 ± 55 M⁻¹; the “Mephedrone–CD complex stability constant, Kstab/Kstab1 (unresolved or first migrating enantiomer)” value turned out to be 160 ± 15 M⁻¹.
With `O=C(O)CCSC[C@H]1O[C@@H]2O[C@H]3[C@H](O)[C@@H](O)[C@@H](O[C@H]4[C@H](O)[C@@H](O)[C@@H](O[C@H]5[C@H](O)[C@@H](O)[C@@H](O[C@H]6[C@H](O)[C@@H](O)[C@@H](O[C@H]7[C@H](O)[C@@H](O)[C@@H](O[C@H]8[C@H](O)[C@@H](O)[C@@H](O[C@H]9[C@H](O)C(O)[C@@H](O[C@H]1[C@H](O)[C@H]2O)O[C@@H]9CSCCC(=O)O)O[C@@H]8CSCCC(=O)O)O[C@@H]7CSCCC(=O)O)O[C@@H]6CSCCC(=O)O)O[C@@H]5CSCCC(=O)O)O[C@@H]4CSCCC(=O)O)O[C@@H]3CSCCC(=O)O` (stereo partly shown) [SGX, octakis(6-deoxy-6-(2-carboxyethyl)thio)-γ-CD], the “4-MEC–CD complex stability constant, Kstab2 (second migrating enantiomer)” value is 960 ± 95 M⁻¹; the “4-MEC–CD complex stability constant, Kstab/Kstab1 (unresolved or first migrating enantiomer)” value amounted to 975 ± 90 M⁻¹; the “Flephedrone–CD complex stability constant, Kstab/Kstab1 (unresolved or first migrating enantiomer)” value is 315 ± 20 M⁻¹; the “Mephedrone–CD complex stability constant, Kstab/Kstab1 (unresolved or first migrating enantiomer)” value came to 825 ± 65 M⁻¹.
With hydroxypropylated-γ-CD [HP-γ-CD], the “4-MEC–CD complex stability constant, Kstab/Kstab1 (unresolved or first migrating enantiomer)” value is 40 ± 4 M⁻¹; the “Butylone–CD complex stability constant, Kstab/Kstab1 (unresolved or first migrating enantiomer)” value is 40 ± 5 M⁻¹; the “Flephedrone–CD complex stability constant, Kstab/Kstab1 (unresolved or first migrating enantiomer)” value came out at 220 ± 35 M⁻¹; the “MDPV–CD complex stability constant, Kstab/Kstab1 (unresolved or first migrating enantiomer)” value is 50 ± 10 M⁻¹. For the same compound, the “Mephedrone–CD complex stability constant, Kstab/Kstab1 (unresolved or first migrating enantiomer)” value was found to be 25 ± 3 M⁻¹.
With carboxymethylated-α-CD [CM-α-CD], the “4-MEC–CD complex stability constant, Kstab2 (second migrating enantiomer)” value amounted to 150 ± 15 M⁻¹; the “4-MEC–CD complex stability constant, Kstab/Kstab1 (unresolved or first migrating enantiomer)” value was determined as 150 ± 15 M⁻¹; the “Butylone–CD complex stability constant, Kstab2 (second migrating enantiomer)” value was 90 ± 12 M⁻¹; the “Butylone–CD complex stability constant, Kstab/Kstab1 (unresolved or first migrating enantiomer)” value was 110 ± 12 M⁻¹. The “Flephedrone–CD complex stability constant, Kstab2 (second migrating enantiomer)” value was 90 ± 15 M⁻¹; the “Flephedrone–CD complex stability constant, Kstab/Kstab1 (unresolved or first migrating enantiomer)” value was found to be 75 ± 9 M⁻¹; the “MDPV–CD complex stability constant, Kstab2 (second migrating enantiomer)” value worked out at 340 ± 20 M⁻¹; the “MDPV–CD complex stability constant, Kstab/Kstab1 (unresolved or first migrating enantiomer)” value is 240 ± 20 M⁻¹. Further, the “Mephedrone–CD complex stability constant, Kstab2 (second migrating enantiomer)” value stood at 110 ± 20 M⁻¹ and the “Mephedrone–CD complex stability constant, Kstab/Kstab1 (unresolved or first migrating enantiomer)” value came to 90 ± 20 M⁻¹.
As for `O=C(O)CCSC[C@H]1O[C@@H]2O[C@H]3[C@H](O)[C@@H](O)[C@@H](O[C@H]4[C@H](O)[C@@H](O)[C@@H](O[C@H]5[C@H](O)[C@@H](O)[C@@H](O[C@H]6[C@H](O)[C@@H](O)[C@@H](O[C@H]7[C@H](O)[C@@H](O)[C@@H](O[C@H]1[C@H](O)[C@H]2O)O[C@@H]7CSCCC(=O)O)O[C@@H]6CSCCC(=O)O)O[C@@H]5CSCCC(=O)O)O[C@@H]4CSCCC(=O)O)O[C@@H]3CSCCC(=O)O` [SAX, hexakis-(6-deoxy-6-(2-carboxyethyl)thio)-α-CD], the “Mephedrone–CD complex stability constant, Kstab/Kstab1 (unresolved or first migrating enantiomer)” value came to 530 ± 45 M⁻¹.
